Measured values published in patent US20140081017A1, “Histone Deacetylase Inhibitors for Enhancing Activity of Antifungal Agents” (METHYLGENE INC., priority 2012, published 2014).
In brackets after ≈: the same amount, converted by molar mass. Where two headings read alike, the source gives them in different places.

How the values were obtained:
Candida albicans = test: Minimal Inhibitory Concentration (MIC) assay, broth microdilution per CLSI; type: cell-based; conditions: Candida albicans, read-out: Minimum Inhibitory Concentrations against Yeast Isolates, Candida albicans;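 note: two read times 24 hr and 48 hr of incubation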
Procedure, shortened: (§1)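 Following CLSI procedure, compounds dissolved in DMSO on the assay day are diluted twofold and added to MOPS-buffered RPMI at pH 7.0. Saline suspensions of the yeasts, matched to 0.5 McFarland, are diluted 1:100 and inoculated, then plates incubate at 35° C for about 24-48 hr.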

Candida glabrata = test: as above; type: cell-based; conditions: Nakaseomyces glabratus, read-out: Minimum Inhibitory Concentrations against Yeast Isolates, Candida glabrata;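 note: two read times 24 hr and 48 hr of incubation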
Procedure, shortened: as §1

Candida parapsilosis = test: as above; type: cell-based; conditions: Lodderomyces parapsilosis, read-out: Minimum Inhibitory Concentrations against Yeast Isolates, Candida parapsilosis;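 note: two read times 24 hr and 48 hr of incubation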
Procedure, shortened: as §1

C. glabrata = test: Checkerboard FIC assay in combination with fluconazole (MIC alone and in combination, FICI); type: cell-based, Candida glabrata; conditions: for FICI of combination resulting in fluconazole MIC of: 2 ug/mL / FICI of combination resulting in fluconazole MIC of: 4 ug/mL / FICI of combination resulting in fluconazole MIC of: 8 ug/mL: FICI calculated using a fluconazole MIC of 16 μg/mL; for FICI of combination resulting in fluconazole MIC of: 2 ug/mL (value in parenthesis) / FICI of combination resulting in fluconazole MIC of: 4 ug/mL (value in parenthesis) / FICI of combination resulting in fluconazole MIC of: 8 ug/mL (value in parenthesis): FICI using a fluconazole MIC of 128 μg/mL; for MIC: Nakaseomyces glabratus; for Multiple of compound MIC to synergize fluconazole MIC to 2 ug/mL / Multiple of compound MIC to synergize fluconazole MIC to 4 ug/mL / Multiple of compound MIC to synergize fluconazole MIC to 8 ug/mL: concentration in combination as multiple of the compound's MIC alone; for Multiple of compound MIC to synergize fluconazole MIC to 2 ug/mL: fluconazole MIC 2 ug/mL; for Multiple of compound MIC to synergize fluconazole MIC to 4 ug/mL: fluconazole MIC 4 ug/mL; for Multiple of compound MIC to synergize fluconazole MIC to 8 ug/mL: fluconazole MIC 8 ug/mL; for Concentration of Methylgene compound to synergize fluconazole MIC to 2 ug/mL / Concentration of Methylgene compound to synergize fluconazole MIC to 4 ug/mL / Concentration of Methylgene compound to synergize fluconazole MIC to 8 ug/mL: in combination with fluconazole; for Concentration of Methylgene compound to synergize fluconazole MIC to 2 ug/mL: fluconazole MIC lowered to 2 ug/mL; for Concentration of Methylgene compound to synergize fluconazole MIC to 4 ug/mL: fluconazole MIC lowered to 4 ug/mL; for Concentration of Methylgene compound to synergize fluconazole MIC to 8 ug/mL: fluconazole MIC lowered to 8 ug/mL
Procedure, shortened: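 C. glabrata was tested by CLSI broth microdilution checkerboard, crossing 2-fold dilutions of compound with 2-fold dilutions of fluconazole. The medium was RPMI with 0.165 M MOPS at pH 7.0, inoculated from a 0.5 McFarland suspension diluted 1:100, then incubated about 48 h at 35 °C. Single-agent MICs gave the FIC and FICI values.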

[1] = 24 hr reading (first value of cell 24 hr/48 hr)
[2] = 48 hr reading (second value of cell 24 hr/48 hr)
[3] = MIC of the example compound alone against C. glabrata in the checkerboard assay, approximately 48 hr, read-out: Methylgene MIC
[4] = test compound alone, C. glabrata, approx. 48 hr at 35° C., read-out: Compound MIC

SMILES	MIC (Candida albicans; [1]) [µg/mL]	MIC (Candida albicans; [2]) [µg/mL]	MIC (Candida glabrata; [1]) [µg/mL]	MIC (Candida glabrata; [2]) [µg/mL]	MIC (Candida parapsilosis; [1]) [µg/mL]	MIC (Candida parapsilosis; [2]) [µg/mL]	FICI of combination resulting in fluconazole MIC of: 2 ug/mL (C. glabrata; C. glabrata)	FICI of combination resulting in fluconazole MIC of: 4 ug/mL (C. glabrata; C. glabrata)	FICI of combination resulting in fluconazole MIC of: 8 ug/mL (C. glabrata; C. glabrata)	FICI of combination resulting in fluconazole MIC of: 2 ug/mL (value in parenthesis) (C. glabrata; C. glabrata)	FICI of combination resulting in fluconazole MIC of: 4 ug/mL (value in parenthesis) (C. glabrata; C. glabrata)	FICI of combination resulting in fluconazole MIC of: 8 ug/mL (value in parenthesis) (C. glabrata; C. glabrata)	MIC (C. glabrata; [3]) [µg/mL]	MIC (C. glabrata; [4]) [µg/mL]	Multiple of compound MIC to synergize fluconazole MIC to 2 ug/mL (C. glabrata)	Multiple of compound MIC to synergize fluconazole MIC to 4 ug/mL (C. glabrata)	Multiple of compound MIC to synergize fluconazole MIC to 8 ug/mL (C. glabrata)	Concentration of Methylgene compound to synergize fluconazole MIC to 2 ug/mL (C. glabrata; C. glabrata) [µg/mL]	Concentration of Methylgene compound to synergize fluconazole MIC to 4 ug/mL (C. glabrata; C. glabrata) [µg/mL]	Concentration of Methylgene compound to synergize fluconazole MIC to 8 ug/mL (C. glabrata; C. glabrata) [µg/mL]
O=C(Cc1ccc(CCCCc2ccc(C(=O)NCCCn3ccnc3)cc2)cc1)NO [Example 22, N-(3-(1H-imidazol-1-yl)propyl)-4-(4-(4-(2-(hydroxyamino)-2-oxoethyl)phenyl)butyl)benzamide]	> 8	> 8	8 (≈ 18.4 µM)	> 8	> 8	> 8	0.188	0.250	0.313	0.141	0.156	0.125	16	16	(⅛x)	(⅛x)	( 1/16x)	2	2	1
O=C(Cc1ccc(CCCCc2ccc(O)c(O)c2)cc1)NO [Example 19, 2-(4-(4-(3,4-dihydroxyphenyl)butyl)phenyl)-N-hydroxyacetamide]	16 (≈ 50.7 µM)	32 (≈ 101 µM)	1 (≈ 3.17 µM)	2 (≈ 6.34 µM)	32 (≈ 101 µM)	32 (≈ 101 µM)	0.313	0.375	0.500	0.266	0.281	0.313	2	2	(¼x)	(¼x)	(¼x)	0.5	0.5	0.5
Cc1ccc(CCCCc2ccc(CC(=O)NO)cc2)cc1 [Example 4, N-hydroxy-2-(4-(4-p-tolylbutyl)phenyl)acetamide]	0.25 (≈ 0.841 µM)	0.25 (≈ 0.841 µM)	0.25 (≈ 0.841 µM)	0.25 (≈ 0.841 µM)	0.12 (≈ 0.403 µM)	0.25 (≈ 0.841 µM)	1.063	0.605	0.490	1.016	0.511	0.303	0.25	0.25	(1x)	(½x)	(¼x)	0.25	0.12	0.06
O=C(Cc1ccc(CCCCc2cccc(NC(=O)CO)c2)cc1)NO [Example 41, N-hydroxy-2-(4-(4-(3-(2-hydroxyacetamido)phe-nyl)butyl)phenyl)acetamide]	> 32	> 32	4 (≈ 11.2 µM)	16 (≈ 44.9 µM)	> 32	> 32	0.563	0.375	0.500	0.516	0.281	0.313	16	16	(½x)	(¼x)	(¼x)	8	4	4
Nc1ccccc1CCCCc1ccc(CC(=O)NO)cc1 [Example 33, 2-(4-(4-(2-aminophenyl)butyl)phenyl)-N-hydroxyacetamide]	8 (≈ 26.8 µM)	16 (≈ 53.6 µM)	4 (≈ 13.4 µM)	8 (≈ 26.8 µM)	8 (≈ 26.8 µM)	16 (≈ 53.6 µM)	0.313	0.375	0.500	0.266	0.281	0.313	8	8	(¼x)	(¼x)	(¼x)	2	2	2
Cn1cnc(CNC(=O)c2ccc(CCCCc3ccc(CC(=O)NO)cc3)cc2)c1 [Example 23, 4-(4-(4-(2-(hydroxyamino)-2-oxoethyl)phenyl)butyl)-N-((1-methyl-1H-imidazol-4-yl)methyl)benzamide]	> 8	> 8	8 (≈ 19 µM)	> 8	> 8	> 8	0.313	0.250	0.375	0.266	0.156	0.188	> 8	> 8	–	–	–	4	2	2
